Experiments:
LOLPE [1] = test: Greenhouse trial: different soil types (test method 8); assay type: in vivo, Lolium perenne; conditions: g of AS/ha: (A) 120, (B) 1200, (C) 90, (A)+(B)+(C) 120 + 1200 + 90
Description: (§1) In the standard design of the test, seeds of various broad-leaved weed and weed grass biotypes (origins) were sown in a 8-13 cm diameter pot filled with natural soil of a standard field soil (loamy silt; non-sterile) and covered with a covering soil layer of about 1 cm. The pots were then cultivated in a greenhouse (12-16 h of light, temperature day 20-22° C., night 15-18° C.) until the time of application. The pots were treated on a laboratory track sprayer with spray liquors comprising the compositions according to the invention, mixtures of the prior art or components used individually. Application of the active compounds or active compound combinations formulated as WG, WP, EC or otherwise was carried out at the appropriate growth stages of the plants. The application rate for the spray application was 100-600 l of water/ha. After the treatment, the plants were returned to the greenhouses.
(§2) About 3 weeks after the application, the soil action or/and foliar action was assessed visually according to a scale of 0-100% in comparison to an untreated comparative group: 0%=no noticeable effect compared to the untreated comparative group; 100%=full effect compared to the untreated comparative group.
(§3) (notes: the term “seeds” also includes vegetative propagation forms such as, for example, rhizome pieces; abbreviations used: h light=hours of illumination, g of AS/ha=gram of active substance per hectare, I/ha=liter per hectare, S=sensitive, R=resistant) • 1. Pre-emergence action against weeds: seeds of various broad-leaved weed and weed grass biotypes (origins) were sown in a 8-13 cm diameter pot filled with natural soil of a standard field soil (loamy silt; non-sterile) and covered with a covering soil layer of about 1 cm. The pots were then cultivated in a greenhouse (12-16 h of light, temperature day 20-22° C., night 15-18° C.) until the time of application. The pots were treated at the BBCH stage 00-10 of the seeds/plants on a laboratory track sprayer with spray liquors comprising the compositions according to the invention, mixtures or components used individually, as WG, WP, EC or other formulations. The application rate for the spray application was 100-600 l of water/ha. After the treatment, the plants were returned to the greenhouses and, when required, treated with fertilizer and watered. • 2. Post-emergence action against weeds: seeds of various broad-leaved weed and weed grass biotypes (origins) were sown in a 8-13 cm diameter pot filled with natural soil of a standard field soil (loamy silt; non-sterile) and covered with a covering soil layer of about 1 cm. The pots were then cultivated in a greenhouse (12-16 h of light, temperature day 20-22° C., night 15-18° C.) until the time of application. The pots were treated at various BBCH stages between 11-25 of the seeds/plants, i.e. generally between two to three weeks after the start of the cultivation, on a laboratory track sprayer with spray liquors comprising the compositions according to the invention, mixtures or components used individually, as WG, WP, EC or other formulations. The application rate for the spray application was 100-600 l of water/ha. After the treatment, the plants were returned to the greenhouses and, when required, treated with fertilizer and watered. • 3. Pre-emergence action against weeds with and without incorporation of active compound: seeds of various broad-leaved weed and weed grass biotypes (origins) were sown in a 8-13 cm diameter pot filled with natural soil of a standard field soil (loamy silt; non-sterile). […]

LOLSS = test: Greenhouse trial: resistant biotypes following PE application (test method 9); assay type: in vivo, Lolium species; conditions: PE, g of AS/ha: (A) 90, (B) 1200, (C) 140, (A)+(B)+(C) 90 + 1200 + 140, iodosulfuron 10; for activity LOLSS resistant: resistant biotype; for activity LOLSS sensitive: sensitive biotype
Description: as §1, §2, §3

LOLPE [2] = test: Greenhouse trial: PE application with different irrigation variants (test method 7); assay type: in vivo, Lolium perenne; conditions: g of AS/ha: (A) 120, (B) 1200, (C) 140, (A)+(B)+(C) 120 + 1200 + 140
Description: as §1, §2, §3

STEME = test: Greenhouse trial: resistant biotypes following PE application (test method 9); assay type: in vivo, Stellaria media; conditions: g of AS/ha: (A) 90, (B) 1200, (C) 140, (A)+(B)+(C) 90 + 1200 + 140, iodosulfuron 10; for activity STEME resistant / activity STEME sensitive: PE; for activity STEME resistant: resistant biotype; for activity STEME sensitive: sensitive biotype
Description: as §1, §2, §3

AVEFA [3] = test: Greenhouse trial: PE application vs application 7 days prior to sowing (test method 6); assay type: in vivo, Avena fatua
Description: as §1, §2, §3

APESV [4] = test: Greenhouse trial: PO application (test methods 2 and 5); assay type: in vivo, Apera Spica-venti; conditions: g of AS/ha: (A) 120, (B) 1600, (C) 140, (A)+(B)+(C) 120 + 1600 + 140
Description: as §1, §2
(§4) (notes: the term “seeds” also includes vegetative propagation forms such as, for example, rhizome pieces; abbreviations used: h light=hours of illumination, g of AS/ha=gram of active substance per hectare, I/ha=liter per hectare, S=sensitive, R=resistant) • 1. Pre-emergence action against weeds: seeds of various broad-leaved weed and weed grass biotypes (origins) were sown in a 8-13 cm diameter pot filled with natural soil of a standard field soil (loamy silt; non-sterile) and covered with a covering soil layer of about 1 cm. The pots were then cultivated in a greenhouse (12-16 h of light, temperature day 20-22° C., night 15-18° C.) until the time of application. […]

MATCH [5] = test: Greenhouse trial: different sowing depths on PE application (test method 10); assay type: in vivo, Matricaria chamomilla; conditions: g of AS/ha: (A) 90, (B) 1200, (C) 140, (A)+(B)+(C) 90 + 1200 + 140
Description: as §1, §2, §3

POAAN [6] = test: Greenhouse trial: PE soil application vs incorporation into the soil (test methods 1, 3 and 4); assay type: in vivo, Poa annua; conditions: g of AS/ha: (A) 120, (B) 1200, (C) 140, (A)+(B)+(C) 120 + 1200 + 140
Description: as §1, §2, §3

AVEFA [7] = test: Greenhouse trial: PE application with different irrigation variants (test method 7); assay type: in vivo, Avena fatua; conditions: g of AS/ha: (A) 120, (B) 1200, (C) 140, (A)+(B)+(C) 120 + 1200 + 140
Description: as §1, §2, §3

MATCH [8] = test: Greenhouse trial: different soil types (test method 8); assay type: in vivo, Matricaria chamomilla; conditions: g of AS/ha: (A) 120, (B) 1200, (C) 140, (A)+(B)+(C) 120 + 1200 + 140
Description: as §1, §2, §3

POAAN [9] = test: Greenhouse trial: PO application (test methods 2 and 5); assay type: in vivo, Poa annua; conditions: g of AS/ha: (A) 120, (B) 1600, (C) 140, (A)+(B)+(C) 120 + 1600 + 140
Description: as §1, §2, §4

APESV [10] = test: Greenhouse trial: different sowing depths on PE application (test method 10); assay type: in vivo, Apera Spica-venti; conditions: g of AS/ha: (A) 90, (B) 1200, (C) 140, (A)+(B)+(C) 90 + 1200 + 140
Description: as §1, §2, §3

LOLPE [11] = test: Greenhouse trial: PE application vs application 7 days prior to sowing (test method 6); assay type: in vivo, Lolium perenne
Description: as §1, §2, §3

MATCH [12] = test: Greenhouse trial: PE application with different irrigation variants (test method 7); assay type: in vivo, Matricaria chamomilla; conditions: g of AS/ha: (A) 120, (B) 1200, (C) 140, (A)+(B)+(C) 120 + 1200 + 140
Description: as §1, §2, §3

[13] = PE application, g of AS/ha: (A) 90, (B) 1200, (C) 140, mixture 90 + 1200 + 140
[14] = application 7 days prior to sowing, g of AS/ha: (A) 90, (B) 1200, (C) 140, (A)+(B)+(C) 90 + 1200 + 140

CC(C)N(C(=O)COc1nnc(C(F)(F)F)s1)c1ccc(F)cc1 [(A) flufenacet, N-(4-fluorophenyl)-N-(1-methylethyl)-2-[[5-(trifluoromethyl)-1,3,4-thiadiazol-2-yl]oxy]acetamide]
activity LOLPE IU soil (LOLPE [1]; IU soil): 89% | activity LOLPE IU/EC73 soil (LOLPE [1]; IU/EC73 soil): 0% | activity LOLSS resistant (LOLSS): 10% | activity LOLSS sensitive (LOLSS): 85% | activity LOLPE (LOLPE [2]; Irrigation from above): 80% | activity LOLPE (LOLPE [2]; Irrigation from below): 78% | activity STEME resistant (STEME): 0% | activity STEME sensitive (STEME): 0% | Difference Δ^D activity resistant to activity sensitive, STEME (STEME): Δ^D ± 0% | activity AVEFA (AVEFA [3]; [13]): 80% | activity AVEFA (AVEFA [3]; [14]): 70% | activity APESV (APESV [4]): 60% | activity MATCH 5 mm (MATCH [5]; sowing depth 5 mm): 30% | activity MATCH 20 mm (MATCH [5]; sowing depth 20 mm): 30% | activity POAAN (POAAN [6]; Incorporation): 90% | activity POAAN (POAAN [6]; PE application): 70% | activity AVEFA (AVEFA [7]; Irrigation from above): 85% | activity AVEFA (AVEFA [7]; Irrigation from below): 50% | activity MATCH IU soil (MATCH [8]; IU soil): 80% | activity MATCH IU/EC73 soil (MATCH [8]; IU/EC73 soil): 0% | activity POAAN (POAAN [9]): 60% | activity APESV 5 mm (APESV [10]; sowing depth 5 mm): 65% | activity APESV 20 mm (APESV [10]; sowing depth 20 mm): 70% | activity LOLPE (LOLPE [11]; [13]): 90% | activity LOLPE (LOLPE [11]; [14]): 80% | activity MATCH (MATCH [12]; Irrigation from above): 49% | activity MATCH (MATCH [12]; Irrigation from below): 35%

COc1nc(C)nc(NC(=O)NS(=O)(=O)c2cc(I)ccc2C(=O)O)n1 [iodosulfuron]
activity LOLSS resistant (LOLSS): 50% | activity LOLSS sensitive (LOLSS): 98% | activity STEME resistant (STEME): 40% | activity STEME sensitive (STEME): 90%

From US20110152088A1, “Herbicidal Composition Comprising Flufenacet” (BAYER CROPSCIENCE AG, priority 2009, published 2011)
